Test results published in patent US20210340130A1, “Compositions and methods for treating attention deficit disorders” (priority 2016, published 2021).
Like-named read-outs stand apart in the source and are kept apart here.

Legend:
[1] = test system: perforant path / dentate gyrus of the hippocampus (fEPSPs); test: Effect on evoked fEPSPs in rat hippocampus (anesthetized animals, in vivo); parameters: species or system Rat (Long Evans); conditions: for Minimum Effective Dose: IP, dose range 5-20 mg/kg; for duration of the fEPSP effect: about 2 hours monitoring, CX717 at 20 mg/kg; for effect on evoked fEPSP / maximum increase in fEPSP amplitude: intraperitoneal administration
Protocol: Further selection and characterization of ampakines to identify anti-ADHD drugs useful within the invention involved electrophysiological studies (to measure “electrically evoked field excitatory postsynaptic potentials” (fEPSPs) for test compounds). CX717 and CX1739 were tested for their ability to facilitate synaptic responses in vivo in anesthetized animals following peripheral administration. Stimulating and recording electrodes were inserted into the perforant path and dentate gyrus of the hippocampus, respectively. Electrically evoked field excitatory postsynaptic responses (fEPSPs) were measured before administration of ampakines, and for approximately 2 hours following intraperitoneal administration of ampakines.
Electrically evoked field excitatory postsynaptic potentials (fEPSPs) were determined for the exemplary test ampakines CX717 and CX1739 as described. […] The response magnitude was related to the plasma levels achieved during the study. […] Both ampakines appear to produce a 25% maximum increase in fEPSP amplitude.

[2] = test system: hippocampal LTP (hilus of the dentate gyrus); test: Effect on induction of LTP in rat hippocampus (anesthetized rat, in vivo); parameters: species or system Rat (Long Evans); conditions: for Minimum Effective Dose: IP
Rat (Wistar) = test: Novel object recognition memory; format: in vivo; conditions: for Minimum Effective Dose: IP
Protocol: Additional Novel Object Recognition behavioral model studies were conducted to further elucidate the anti-ADHD activities of CX717 and CX1739. Rats were habituated to a test box for two 5 minute sessions on consecutive days. Each test session consisted of two phases: in the first phase (“sample period”), two identical objects (A1 and A2) were placed in the far corners of the box, and the rats were allowed to explore the objects. After a 24 hour delay, rats were re-introduced to the arena (“test period”) now containing a third identical copy of the familiar object (A3) and a new object (B), placed in the same locations as in the first phase, and the total time spent exploring each of the objects was determined over a 3-min duration. For CX717 drug treatment, rats were dosed 30 min prior to each sample session with either 0.1, 0.3, 1.0 mg/kg CX717 (p.o.); vehicle (0.5% methylcellulose, p.o.) or 0.9 mg/kg Aricept (E2020, i.p.). The exploration times for the full 3-min were calculated and expressed as the discrimination index, d1, defined as the absolute difference in time spent exploring the novel object minus the familiar object.
For CX1739 Male Wistar rats were assessed for cognitive ability in a test apparatus comprising an open-field arena placed in a sound-attenuated room under dimmed lighting. Rat exploration and activity were captured by a digital camera, and viewed on a monitor in an adjoining area. Following a 5-minute habituation period, each animal was placed in the test arena in the presence of two identical objects (plastic shapes) and the time spent actively exploring the objects during a 5-minute test period (T1) was recorded. After 24 hours, each rat was again placed in the test arena for 5 minutes (T2) in the presence of one familiar object and one novel object, and the time spent exploring both objects was recorded. The Recognition Index was calculated as the percentage of total exploration time spent exploring the novel object during the retention session (T2), which provides the primary measure of cognitive function in this assay.
The Novel object recognition (NOR) paradigm is a rodent model of recognition learning memory retrieval and takes advantage of the spontaneous behavior of rodents to investigate a novel object compared with a familiar object. NOR has been employed extensively to indicate cognition-enhancing properties of drug candidates, predictive of therapeutic efficacy of positively-assaying drugs for reducing ADHD symptoms in humans.

Mouse (CD1) = test: Amphetamine-stimulated locomotion in mice; format: in vivo; conditions: for Minimum Effective Dose: IP, dose range 5.6-30 mg/kg; for amphetamine-stimulated locomotion, pre-treatment: amphetamine 2 mg/kg i.p.
Protocol: Effects of exemplary low impact ampakines were also evaluated in mice for the ability to inhibit amphetamine-stimulated locomotor activity. Mice were placed in the locomotor chamber for 20 min to habituate, removed, injected with either vehicle or anti-ADHD ampakine (CX717), and 5 min later injected with 2 mg/kg i.p. Amphetamine. Mice were returned to the locomotor chamber 10 min later, and their activity measured for a further 15 min. In related studies, adult male CD1 mice or male Sprague-Dawley rats were acclimated in a test chamber for 20 minutes removed and dosed i.p. (mice) or orally (rats) with CX1739, vehicle, or a reference compound. Five (mice) or 10 (rats) were then injected with amphetamine (2 mg/kg, i.p.) or saline vehicle and were returned to the activity test chamber.

[3] = test system: hippocampal slices (CA1 population spikes)
Protocol: Slice Seizure Assay In these studies extracellular field potentials recording (Population Spikes) in hippocampal slices were used to determine convulsant activity (potential seizure liability). Transverse 300-400 μm hippocampal slices were taken from adult male Sprague-Dawley rats (4-6 week old) and incubated in a submerge slice recording chamber system for 30 to 60 min. The chamber was perfused with oxygenated artificial cerebral spinal fluid (ACSF) comprising (in mM): NaCl 124, KCl 3.0, KH2PO4 1.25, CaCl2.34, MgSO4 2.5, NaHCO3 26 and glucose 10 at room temperature. Population Spike (PS) recordings were made with glass electrodes filled with 2 M NaCl (1-5 megaohm) places in the region of pyramidal cell body of CA1. Electrical stimuli were produced with twisted bipolar nichrome wire electrodes in the Schaffer-commissural fiber afferents. Population spike was induced by activating Schaffer-commissural fiber using single pulse stimulation with delivered at 0.05 Hz. The maximal amplitude of PS was determined by increase stimulating intensity till second spike appears. Then the intensity was decreased to induce a 50% to 60% of maximal response. The amplitude of PS was measured for each response and plotted against time. At same time the amplitude of second PS and/or number of PS was measured and plotted against time. The size of the second PS and numbers of PS were used to estimate the seizure potential or seizure state. With 20 to 50 min stable baseline established testing compound was perfused for 10 to 20 min at each concentration to observe the effect. […] The perfusion then was switched to control ACSF and continued to record until drug effect was washed back to the baseline. CX717 and CX1739 exemplary test ampakine compounds were prepared by dissolving in DMSO and then added to ACSF.
The upper 3 panels of FIG. 5 show amplitudes for PS 1, 2 and 3 m respectively. Lower panel is the measurement of the number of PS.

Row | Structure (SMILES) | Minimum Effective Dose [1] [mg/kg] | duration of the fEPSP effect [1] | effect on evoked fEPSP [1] | maximum increase in fEPSP amplitude [1] [%] | effect on LTP ([2]; 3 mg/kg, p<0.01) | Minimum Effective Dose [2] [mg/kg] | preference for novel object exploration versus positive control (Rat (Wistar); 0.03 mg/kg) | Minimum Effective Dose (Rat (Wistar)) [mg/kg] | preference for exploring the novel object (Rat (Wistar); rat, in vivo) | amphetamine-stimulated locomotion (Mouse (CD1); 30 mg/kg ip) | Minimum Effective Dose (Mouse (CD1)) [mg/kg] | amphetamine-stimulated locomotion, pre-treatment (Mouse (CD1)) | seizure activity (population spikes) ([3]; 100 μM for 20 min and then 200 μM for another 20 min) | amplitude of the first PS ([3]; 100 μM then 200 μM perfusion) | enhancement of hippocampal LTP relative to baseline ([2]; 2 mg/kg, after the tetanus, P<0.01) [%] | d1 scores (discrimination index) (Rat (Wistar); 0.3 mg/kg, compared to vehicle) | seizure activity (population spikes) ([3]; concentrations up to 600 uM)
1 | CN(C(=O)c1ccc2nonc2c1)C1CCOCC1 [CX1739, N-Methyl-N-tetrahydro-2H-pyran-4-yl-[2,1,3]-benzoxadiazole-5-carboxamide] | 5 | declined to baseline after two hours | substantial increase in EPSP amplitude | ~25 | statistically significant increase in LTP | 3 | comparable to that of 3 mg/kg galantamine | 0.03 | significant increase | significant decrease | 30 | inhibited amphetamine-stimulated locomotion in mice in a dose-dependent manner | no sign of seizure activity | did not change the amplitude of the first PS |  |  | 
2 | O=C(c1ccc2nonc2c1)N1CCOCC1 [CX717, 1-(benzofurazan-5-ylcarbonyl)morpholine] | 5 | plateaued for the duration of monitoring | long-lasting increase in the evoked fEPSP in a concentration-dependent manner | ~25 |  | 2 |  | 0.3 |  |  | 18 | inhibited amphetamine-stimulated locomotion in mice in a dose-dependent manner |  |  | 200 | significant increase | did not display seizure activity
